Results reported in ChEMBL document CHEMBL1201862, “PubChem BioAssay data set” (2004).
Activity calls are given as the source filed them.

Key:
[1] = Luminescence Cell-Based Dose Response HTS to Identify Inhibitors of 5'UTR Stem-Loop Driven Prion Protein mRNA Translation in H4 Neuroglioblastoma Cells. [Related pubchem assays: 1827 (Project Summary), 1813 (Primary HTS)]; format: functional
[2] = luciferase reporter signal suppression in cells – H4 neuroglioma cells, luminescence, dose response (AID 1990); format: functional, cell-based
[3] = biological target: T1, Apoptotic protease-activating factor 1 (Homo sapiens, UniProt O14727); format: functional
T1 sequence (O14727 whole entry): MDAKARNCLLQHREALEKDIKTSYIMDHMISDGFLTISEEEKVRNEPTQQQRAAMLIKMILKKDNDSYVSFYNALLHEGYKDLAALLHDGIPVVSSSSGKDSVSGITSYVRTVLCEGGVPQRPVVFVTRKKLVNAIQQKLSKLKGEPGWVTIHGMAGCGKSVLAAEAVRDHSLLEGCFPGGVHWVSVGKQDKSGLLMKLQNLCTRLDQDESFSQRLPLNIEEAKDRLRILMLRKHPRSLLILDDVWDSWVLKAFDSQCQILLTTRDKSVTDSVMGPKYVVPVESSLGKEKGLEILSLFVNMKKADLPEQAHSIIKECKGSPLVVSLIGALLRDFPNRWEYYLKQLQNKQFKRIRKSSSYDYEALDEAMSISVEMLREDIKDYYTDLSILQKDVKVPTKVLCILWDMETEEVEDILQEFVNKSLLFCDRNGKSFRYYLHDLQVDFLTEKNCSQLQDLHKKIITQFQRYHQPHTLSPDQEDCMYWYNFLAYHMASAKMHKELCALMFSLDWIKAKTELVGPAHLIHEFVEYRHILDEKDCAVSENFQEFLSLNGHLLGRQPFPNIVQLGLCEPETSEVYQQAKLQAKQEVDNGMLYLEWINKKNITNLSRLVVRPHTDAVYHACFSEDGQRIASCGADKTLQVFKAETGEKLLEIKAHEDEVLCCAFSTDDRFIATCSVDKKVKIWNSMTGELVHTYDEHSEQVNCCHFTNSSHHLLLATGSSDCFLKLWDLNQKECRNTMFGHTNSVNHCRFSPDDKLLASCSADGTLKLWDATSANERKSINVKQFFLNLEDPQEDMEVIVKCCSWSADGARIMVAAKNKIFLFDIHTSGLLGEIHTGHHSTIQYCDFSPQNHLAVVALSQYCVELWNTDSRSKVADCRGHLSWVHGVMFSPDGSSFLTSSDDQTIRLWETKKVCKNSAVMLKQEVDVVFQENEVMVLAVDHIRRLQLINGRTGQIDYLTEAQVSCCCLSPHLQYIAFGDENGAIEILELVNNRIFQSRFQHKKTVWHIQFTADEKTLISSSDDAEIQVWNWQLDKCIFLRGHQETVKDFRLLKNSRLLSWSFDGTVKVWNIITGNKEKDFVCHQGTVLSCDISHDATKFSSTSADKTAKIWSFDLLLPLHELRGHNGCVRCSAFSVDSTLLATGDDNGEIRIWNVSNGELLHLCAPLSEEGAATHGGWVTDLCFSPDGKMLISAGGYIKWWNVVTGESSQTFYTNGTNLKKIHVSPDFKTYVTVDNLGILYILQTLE

[4] = system: HEK293; experiment: EBV LMP1 TES2 canonical NF-kB signalling blockers – cell-based, HEK293, luciferase, cherry-pick, dose response (AID 588343); format: functional; settings: Homo sapiens
[5] = alpha-synuclein stem-loop luciferase translation blockers – H4 neuroglioma cells, luminescence, confirmation (AID 1988); format: functional, cell-based
[6] = IC50 of Artemis nuclease activity blockers – biochemical, fluorescence intensity, dose response (AID 720701); format: functional;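 further: Artemis endonuclease enzyme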
[7] = biological target: T2, Protein RecA (Mycobacterium tuberculosis, UniProt P9WHJ3); experiment: Fluorescence Cell-Free Homogeneous Dose Retest to Identify Inhibitors of RecA-Intein Splicing Activity. [Related pubchem assays (depositor defined):AID2097, AID2223, AID489010, AID492950]; format: functional
T2 sequence (P9WHJ3 whole entry): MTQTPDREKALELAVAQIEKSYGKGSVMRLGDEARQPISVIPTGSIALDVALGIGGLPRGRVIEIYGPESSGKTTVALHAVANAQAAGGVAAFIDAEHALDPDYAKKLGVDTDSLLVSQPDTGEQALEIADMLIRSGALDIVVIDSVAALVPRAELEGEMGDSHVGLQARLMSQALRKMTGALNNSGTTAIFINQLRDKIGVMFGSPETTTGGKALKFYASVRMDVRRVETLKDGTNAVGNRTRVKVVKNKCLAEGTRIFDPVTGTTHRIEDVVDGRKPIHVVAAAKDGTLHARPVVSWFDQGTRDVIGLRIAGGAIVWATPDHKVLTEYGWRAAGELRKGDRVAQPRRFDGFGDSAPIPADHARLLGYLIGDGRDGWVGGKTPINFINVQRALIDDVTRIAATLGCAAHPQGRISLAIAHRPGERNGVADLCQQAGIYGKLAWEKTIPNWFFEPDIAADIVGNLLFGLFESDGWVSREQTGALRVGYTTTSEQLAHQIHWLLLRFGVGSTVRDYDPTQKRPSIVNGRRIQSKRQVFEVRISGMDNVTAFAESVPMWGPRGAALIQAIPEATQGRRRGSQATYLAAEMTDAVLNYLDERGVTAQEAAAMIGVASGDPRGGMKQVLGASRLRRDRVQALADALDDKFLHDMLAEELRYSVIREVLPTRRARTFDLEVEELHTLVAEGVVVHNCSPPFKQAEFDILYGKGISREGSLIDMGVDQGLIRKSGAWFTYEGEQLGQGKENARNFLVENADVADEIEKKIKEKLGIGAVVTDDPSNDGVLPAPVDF

[8] = fluconazole-exposed Candida albicans growth modulators – fluorescence, retest, confirmation (AID 2467); format: functional, cell-based
[9] = biological target: T3, Replicative DNA helicase DnaB (Mycobacterium tuberculosis, UniProt P9WMR3); experiment: DnaB intein splicing inhibitors, dose response, biochemical, cell-free fluorescence (AID 449749); format: functional
T3 sequence (P9WMR3 whole entry): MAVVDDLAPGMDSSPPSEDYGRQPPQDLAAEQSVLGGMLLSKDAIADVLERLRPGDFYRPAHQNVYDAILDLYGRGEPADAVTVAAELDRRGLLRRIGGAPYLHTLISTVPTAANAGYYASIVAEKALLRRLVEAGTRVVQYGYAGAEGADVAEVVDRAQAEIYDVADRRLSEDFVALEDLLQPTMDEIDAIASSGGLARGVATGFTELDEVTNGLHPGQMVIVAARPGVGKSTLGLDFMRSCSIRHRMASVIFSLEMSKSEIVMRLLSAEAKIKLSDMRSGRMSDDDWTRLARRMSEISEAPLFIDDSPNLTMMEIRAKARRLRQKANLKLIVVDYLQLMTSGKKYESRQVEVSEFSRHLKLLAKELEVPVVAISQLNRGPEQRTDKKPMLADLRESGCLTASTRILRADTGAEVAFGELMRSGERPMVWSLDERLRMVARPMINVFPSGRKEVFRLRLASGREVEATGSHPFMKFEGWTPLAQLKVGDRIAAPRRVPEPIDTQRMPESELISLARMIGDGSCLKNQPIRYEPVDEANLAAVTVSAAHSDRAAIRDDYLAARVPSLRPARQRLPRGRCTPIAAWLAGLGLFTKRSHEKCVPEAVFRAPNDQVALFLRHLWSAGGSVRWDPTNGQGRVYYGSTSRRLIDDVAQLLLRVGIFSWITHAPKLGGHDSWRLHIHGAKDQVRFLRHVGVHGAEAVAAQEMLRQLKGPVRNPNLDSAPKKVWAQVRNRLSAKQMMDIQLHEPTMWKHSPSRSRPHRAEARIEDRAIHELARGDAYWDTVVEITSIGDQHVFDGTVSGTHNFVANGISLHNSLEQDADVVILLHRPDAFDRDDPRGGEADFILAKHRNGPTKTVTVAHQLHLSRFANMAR

[10] = NIH-3T3 fibroblast cytotoxicity, dose response, cytotoxicity control, cell-based, fluorescence, Alamar Blue, secondary assay (AID 2327); format: functional;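 further: NIH-3T3 mouse fibroblasts cultured with fluconazole at 8 µg/mL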
[11] = Trypanosoma cruzi growth suppression in host cells – NIH3T3 host cells, beta-gal luminescence, confirmation (AID 2044); format: functional, cell-based;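 further: intracellular parasites grown in NIH/3T3 mouse fibroblasts as host cells; luminescent beta-galactosidase reporter signal from transgenic T. cruzi replicating inside host cells; inhibitors lower the luminescence signal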
[12] = biological target: ATP-dependent molecular chaperone HSP82 (Candida albicans (strain WO-1) (Yeast), UniProt C4YTQ8); experiment: steroid-induced GRE reporter decrease in yeast – S. cerevisiae, luminescence, Hsp90 inhibitor project, dose response (AID 2400); format: functional, cell-based;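 further: beta-galactosidase luminescence from glucocorticoid response element reporter as proxy for Hsp90 function; inhibitor potency where signal loss means Hsp90 inhibition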
[13] = NIH3T3 cell viability loss – ATP luminescence, mouse fibroblasts, counter-screen, dose response (AID 2010); format: functional, cell-based;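 further: cells exposed to compound for about 90 hours before reading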
[14] = biological target: Serine/threonine-protein phosphatase (Candida dubliniensis (strain CD36 / CBS 7987 / NCPF 3949 / NRRLY-17841) (Yeast), UniProt B9W6M3); experiment: blockers of CaCl2-induced CDRE-lacZ signaling – S. cerevisiae, luminescence, secondary, dose response (AID 2388); format: functional, cell-based;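 further: yeast reporter cells carrying a calcineurin-responsive lacZ construct stimulated with calcium chloride; luminescent beta-galactosidase reporter signal in whole cells rather than isolated phosphatase activity; potency for inhibition where a drop in reporter signal means calcineurin blockade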
[15] = system: INS1; experiment: INS-1E survival protection against cytokine death – cell-based, luminescence, retest, dose response (AID 449756); format: functional; settings: Rattus norvegicus, INS1;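 further: cell death triggered by IL-1 beta plus TNF-alpha plus IFN-gamma mixture; protective hits raise ATP signal compared with cytokine alone wells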
[16] = biological target: Short transient receptor potential channel 6 (Mus musculus, UniProt Q61143); experiment: mouse TRPC6 channel blockers, concentration series – HEK293 cells, membrane potential dye, IC50, selectivity assay for selective TRPC4 inhibitor project, dose response (AID 492987); format: functional, cell-based
[17] = system: INS1; experiment: suppression of cytokine-induced beta-cell apoptosis – INS-1E, caspase luminescence, dry powder, beta-cell apoptosis inhibitor project, dose response (AID 488848); format: functional, cell-based; settings: Rattus norvegicus
[18] = system: Candida albicans; experiment: resistant Candida growth with fluconazole co-treatment – CaCi-8 strain, Alamar Blue, dry powder, set 2, dose response (AID 488909); format: functional, organism-based
[19] = system: Candida albicans; experiment: Candida growth reduction in fluconazole presence – CaCi-2 strain, Alamar Blue, dry powder, set 2, antifungal resistance reversal project, dose response (AID 488930); format: functional, organism-based
[20] = system: Candida albicans; experiment: C. albicans growth inhibition with fluconazole – CaCi-2 strain, Alamar Blue, dry powder, set 4, dose response (AID 488943); format: functional, organism-based
[21] = system: Candida albicans; experiment: fluconazole-resistant Candida strain growth inhibitors – CaCi-8 strain, dry powder, set 4, dose response (AID 488950); format: functional, organism-based

Chain of Serine/threonine-protein phosphatase (B9W6M3 whole entry): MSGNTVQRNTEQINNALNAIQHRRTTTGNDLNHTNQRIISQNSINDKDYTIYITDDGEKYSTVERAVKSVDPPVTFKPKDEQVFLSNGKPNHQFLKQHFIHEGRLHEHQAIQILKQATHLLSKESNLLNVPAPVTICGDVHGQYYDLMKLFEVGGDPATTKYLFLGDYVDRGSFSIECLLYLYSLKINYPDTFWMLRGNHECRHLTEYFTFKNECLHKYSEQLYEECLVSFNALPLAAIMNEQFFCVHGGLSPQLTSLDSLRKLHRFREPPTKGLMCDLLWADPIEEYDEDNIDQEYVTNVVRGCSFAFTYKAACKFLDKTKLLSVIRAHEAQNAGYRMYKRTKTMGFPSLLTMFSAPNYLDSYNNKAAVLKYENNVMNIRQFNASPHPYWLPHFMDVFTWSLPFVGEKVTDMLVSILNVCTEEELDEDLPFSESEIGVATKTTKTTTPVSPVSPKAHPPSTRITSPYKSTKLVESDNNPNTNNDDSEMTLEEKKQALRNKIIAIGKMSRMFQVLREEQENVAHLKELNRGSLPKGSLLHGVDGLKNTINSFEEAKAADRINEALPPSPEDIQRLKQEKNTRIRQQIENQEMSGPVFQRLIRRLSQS
Chain of ATP-dependent molecular chaperone HSP82 (C4YTQ8 whole entry): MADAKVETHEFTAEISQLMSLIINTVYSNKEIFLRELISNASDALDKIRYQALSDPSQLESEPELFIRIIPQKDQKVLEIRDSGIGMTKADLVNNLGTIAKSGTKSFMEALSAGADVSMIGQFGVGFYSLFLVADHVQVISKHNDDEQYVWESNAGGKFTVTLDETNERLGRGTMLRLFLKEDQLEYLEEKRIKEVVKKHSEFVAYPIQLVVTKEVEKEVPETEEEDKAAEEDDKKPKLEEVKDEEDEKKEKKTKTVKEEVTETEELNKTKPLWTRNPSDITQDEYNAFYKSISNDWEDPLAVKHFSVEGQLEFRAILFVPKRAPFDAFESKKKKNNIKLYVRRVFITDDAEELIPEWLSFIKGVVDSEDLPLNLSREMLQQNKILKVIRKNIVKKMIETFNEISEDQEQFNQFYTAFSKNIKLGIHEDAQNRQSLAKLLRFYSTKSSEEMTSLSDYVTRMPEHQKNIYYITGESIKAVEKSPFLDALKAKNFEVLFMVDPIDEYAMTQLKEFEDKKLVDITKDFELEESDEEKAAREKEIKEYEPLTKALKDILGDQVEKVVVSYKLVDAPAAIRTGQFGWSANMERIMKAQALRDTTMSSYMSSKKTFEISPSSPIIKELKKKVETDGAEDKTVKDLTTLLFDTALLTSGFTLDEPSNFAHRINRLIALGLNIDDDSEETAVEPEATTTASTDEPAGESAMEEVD
Chain of Short transient receptor potential channel 6 (Q61143 whole entry): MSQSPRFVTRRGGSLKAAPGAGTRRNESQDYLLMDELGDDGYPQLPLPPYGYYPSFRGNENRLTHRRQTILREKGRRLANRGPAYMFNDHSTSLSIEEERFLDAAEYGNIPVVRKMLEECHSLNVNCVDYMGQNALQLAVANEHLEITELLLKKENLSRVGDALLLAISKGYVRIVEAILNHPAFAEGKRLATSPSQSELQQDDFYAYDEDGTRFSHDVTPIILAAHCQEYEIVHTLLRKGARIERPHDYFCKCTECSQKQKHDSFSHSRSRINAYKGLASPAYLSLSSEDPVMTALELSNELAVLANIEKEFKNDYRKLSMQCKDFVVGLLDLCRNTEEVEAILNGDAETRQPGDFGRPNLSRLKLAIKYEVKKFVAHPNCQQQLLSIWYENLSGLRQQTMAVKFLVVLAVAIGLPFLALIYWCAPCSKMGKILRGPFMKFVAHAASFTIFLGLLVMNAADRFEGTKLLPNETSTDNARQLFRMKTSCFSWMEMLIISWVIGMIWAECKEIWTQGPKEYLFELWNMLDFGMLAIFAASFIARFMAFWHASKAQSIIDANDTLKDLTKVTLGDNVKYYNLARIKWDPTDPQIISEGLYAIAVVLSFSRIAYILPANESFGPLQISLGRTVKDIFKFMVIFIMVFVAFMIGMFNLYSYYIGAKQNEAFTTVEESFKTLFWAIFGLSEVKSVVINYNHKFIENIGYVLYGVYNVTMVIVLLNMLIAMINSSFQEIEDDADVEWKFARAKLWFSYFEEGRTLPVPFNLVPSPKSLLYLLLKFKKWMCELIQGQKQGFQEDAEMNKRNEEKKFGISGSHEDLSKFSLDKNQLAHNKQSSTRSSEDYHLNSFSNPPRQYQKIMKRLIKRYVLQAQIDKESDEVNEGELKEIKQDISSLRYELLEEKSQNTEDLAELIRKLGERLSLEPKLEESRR

Compound: Clc1ccc(-c2cn3nc4c(nc3n2)CCCC4)cc1
- EC50 [1]: 5.88 µM (active)
- EC50 [2]: 3.45 µM (active)
- IC50 [3]: 17.5 µM (active)
- AC50 [4]: 1.45 µM (active)
- EC50 [5]: 1.51 µM (active)
- IC50 [6]: > 20 µM (inactive)

Compound: COc1ccccc1NC1=C(N2CCCCC2)C(=O)c2ccccc2C1=O
- EC50 [7]: 1.51 µM (active)
- EC50 [8]: 1.02 µM (active)
- AC50 [9]: 18.6 µM (active)
- EC50 [10]: 41.7 µM (active)
- EC50 [11]: 0.56 µM (active)
- EC50 [12]: > 160 µM (inactive)
- IC50 [3]: 3.32 µM (active)
- EC50 [13]: > 30 µM (not active)
- EC50 [14]: > 180 µM (inactive)
- AC50 [15]: 0.916 µM (active)

Compound: FC(F)(F)c1cc(N2CCCC2)nc2ccccc12
- IC50 [16]: 23.1 µM (active)

Compound: COc1ccc(S(=O)(=O)N(C)C[C@@H]2Oc3c(NC(=O)Nc4cccc5c4ccn5C)cccc3C(=O)N([C@@H](C)CO)C[C@H]2C)cc1
- AC50 [17]: 17.5 µM (active)

Compound: O=C(c1cccc(Cl)c1)N1CCN(c2ccnc3cc(Cl)ccc23)CC1
- AC50 [18]: 8.31 µM (active)
- AC50 [19]: 2.33 µM (active)
- AC50 [20]: 2.75 µM (active)
- AC50 [21]: 2.43 µM (active)
